According to BindingDB's records for doi:10.1021/jm00001a012 (Ciba-Geigy, 1995):

Molecular target: 5-lipoxygenase (Cavia porcellus)
Assay: In vitro 5-lipoxygenase inhibitory activity against A-23187-stimulated conversion of [14C]AA to LTB4 in guinea pig peritoneal polymorphonuclear leukocytes

NC(=O)N(O)C[C@H]1COc2ccc(Oc3ccc(F)cc3)cc2O1 [(2S)-2-[[N-(aminocarbonyl)-N-hydroxyamino]methyl]-7-(4-fluorophenoxy)-1,4-benzodioxan]
IC50: 0.097 µM
